{"source": "paper PMC2228116", "about": "(British Journal of Cancer, 1997)", "key": {"in vitro": {"test": "in vitro", "conditions": "male, Wistar, rat, pH 7.4", "protocol": "(§1) British Joumal of Cancer (1997) 76(9), 1170-1180 ? […] Livers were perfused with 5-FU alone at a dose of 15 mg kg-' body weight or with 5-FU + GW776 at doses of 15 mg 5-FU kg-' body weight and 0.5 mg GW776 kg-' body weight injected 1 h before 5-FU. […] Keywords: 5-fluorouracil; 5-ethynyluracil (GW776); 19F nuclear magnetic resonance; modulation of 5-fluorouracil metabolism; fluoroacetate; 2-fluoro-3-hydroxypropionic acid; isolated perfused rat liver 5-Fluorouracil (5-FU) is one of the most commonly used anti- cancer agents for treatment of solid tumours. Common clinical adverse reactions include myelosuppression, diarrhoea, vomiting and mucositis. […] 5-Ethynyluracil (GW776) is a potent inactivator of the catabolic pathway of 5-FU acting on dihydropyrimidine dehydrogenase (DPD), the enzyme that converts 5-FU into its first catabolite, 5,6-dihydro-5-fluorouracil (FUH2), thereby preserving 5-FU from its rapid and extensive catabolism (Porter et al, 1992; Baccanari et al, 1993; Spector et al, 1993). […] MATERIALS AND METHODS IPRL experiments Livers from male Wistar rats (Iffa Credo, Lyon, France) were isolated and perfused with recirculation of the perfusion medium according to the design originally described by Brauer et al (1951) and modified by Sabouraud et al (1993). The recirculating perfusate (approximately 180 ml), oxygenated with oxygen- carbon dioxide (95%:5%), was a Krebs-Ringer bicarbonate buffer supplemented with glucose (1.3 mM) and bovine serum albumin (0.5%). The perfusate (pH 7.4) was recirculated at a mean flow rate of 10 ml min-1 g-' of liver. The experiments were carried out with solutions of 5-FU prepared immediately before use at a dose of 15 mg kg-' body weight."}, "[1]": {"tested_on": "isolated perfused rat liver", "test": "in vitro", "protocol": "as §1"}, "[2]": {"tested_on": "isolated perfused rat liver", "test": "Liver viability in IPRL experiments (LDH activity in perfusate, bile flow)", "conditions": "Table 1, text", "protocol": "as §1, with “The recirculating perfusate (approximately 180 ml), oxygenated with oxygen- carbon dioxide (95%:5%), was a Krebs-Ringer bicarbonate buffer supplemented with glucose (1.3 mM) and bovine serum albumin (0.5%). The perfusate (pH 7.4) was recirculated at a mean flow rate of 10 ml min-1 g-' of liver. The experiments were carried out with solutions of 5-FU prepared immediately before use at a dose of 15 mg kg-' body weight.” left out"}, "[3]": {"test": "Control experiments without liver: chemical transformation in perfusate (19F-NMR)", "type": "physicochemical"}, "[4]": {"design": "method as in Khor et al, 1996", "conditions": "humans, without GW776; ref Khor et al, 1996; cited from earlier work"}, "[5]": {"design": "method as in Zhang et al, 1992, 1993", "conditions": "rats; ref Zhang et al, 1992, 1993; cited from earlier work"}, "[6]": {"tested_on": "isolated perfused rabbit heart", "test": "Cardiotoxicity on the isolated perfused rabbit heart model", "conditions": "unpublished data"}, "DPD": {"tested_on": "DPD", "design": "method as in Baccanari et al (1993)", "conditions": "1 h or 6 h after single dose GW776 2 mg kg-1 p.o.; compared with > 96% of this study; ref Baccanari et al (1993); cited from earlier work"}, "dogs": {"tested_on": "dogs", "design": "method as in Davis et al (1994)", "conditions": "26-h continuous infusion of 5-FU at 1.6, 4 or 16 mg kg-1 24 h-1; ref Davis et al (1994); cited from earlier work"}, "mouse tumour models": {"tested_on": "mouse tumour models", "design": "method as in Baccanari et al, 1993", "conditions": "ref Baccanari et al, 1993; cited from earlier work"}, "rat tumour models": {"tested_on": "rat tumour models", "design": "method as in Cao et al, 1994", "conditions": "ref Cao et al, 1994; cited from earlier work"}, "MOPC-315 s.c. tumours": {"tested_on": "MOPC-315 s.c. tumours", "design": "method as in Davis et al (1995)", "conditions": "compared with mice treated with 5-FU alone; ref Davis et al (1995); cited from earlier work"}, "[7]": {"conditions": "Table 4, liver acid-insoluble extract"}, "[8]": {"conditions": "FBAL 16.6 mg kg-1 circulated 3 h without liver, after concentration"}, "[9]": {"conditions": "GW776 0.5 mg kg-1 1 h before 5-FU 15 mg kg-1"}}, "note": "“And” between values parts separate entries of the source, which are not always exact repeats. Identical values can stand only once."}
{"smiles": "O=c1[nH]cc(F)c(=O)[nH]1", "note": "[5-FU, 5-fluorouracil]", "values": [{"measurement": "recovery", "setting": "in vitro", "value": 0, "unit": "%"}, {"measurement": "Unmetabolized 5-FU, global recovery", "setting": "[1]", "value": "All 5-FU was metabolized"}, {"measurement": "5', 2' and 3' FUMP in acid-insoluble extract", "setting": "[1]; [7]", "value": "0 Per cent of Injected dose"}, {"measurement": "5-FU in acid-insoluble extract", "setting": "[1]; [7]", "value": "0 Per cent of Injected dose"}, {"measurement": "5-FU in acid-soluble extract", "setting": "[1]; Table 4, liver acid-soluble extract", "value": "0 Per cent of Injected dose"}, {"measurement": "Total in acid-soluble extract", "setting": "[1]; Table 4, liver acid-soluble extract, P<0.01", "value": "13 + 4 Per cent of Injected dose and 13 Per cent of Injected dose"}, {"measurement": "5-FU in perfusate", "setting": "[1]; male, Wistar, rat, pH 7.4", "value": "0 Per cent of Injected dose"}, {"measurement": "Unmetabolized 5-FU", "setting": "[1]; male, Wistar, rat, pH 7.4", "value": "0% of injected dose"}, {"measurement": "LDH activity compared with control experiments", "setting": "[2]", "value": "no significant difference"}, {"measurement": "Chemical transformation in perfusate", "setting": "[3]; perfusate bubbled with carbogen for 3 h at 37 C", "value": "not chemically transformed"}, {"measurement": "Half-life of 5-FU", "setting": "[4]", "value": "approximately 14 min"}]}
{"smiles": "NCC(F)C(=O)O", "note": "(stereo not drawn) [FBAL, alpha-fluoro-beta-alanine]", "values": [{"measurement": "Adduct of FBAL with a-glucose as share of all the fluorinated compounds detected", "setting": "[3]; [8]", "value": 2.4, "unit": "%"}, {"measurement": "Adduct of FBAL with beta-glucose as share of all the fluorinated compounds detected", "setting": "[3]; [8]", "value": 28.3, "unit": "%"}, {"measurement": "CFBAL as share of all the fluorinated compounds detected", "setting": "[3]; [8]", "value": 49.6, "unit": "%"}, {"measurement": "F- as share of all the fluorinated compounds detected", "setting": "[3]; [8]", "value": 1.4, "unit": "%"}, {"measurement": "FBAL as share of all the fluorinated compounds detected", "setting": "[3]; [8]", "value": 18.3, "unit": "%"}, {"measurement": "FBAL signal share", "setting": "[3]; solution of FBAL in perfusion medium over 3 h", "value": 98.9, "unit": "%"}, {"measurement": "Retention in various tissues (mainly liver, heart and brain)", "setting": "[5]", "value": "up to 8 days"}]}
{"smiles": "O=C(O)C(F)CO", "note": "(stereo not drawn) [FHPA, 2-fluoro-3-hydroxypropionic acid]", "values": [{"measurement": "Cardiotoxicity", "setting": "[6]; 0.01 mg kg-1 (lowest dose)", "value": "did not generate cardiotoxic symptoms"}, {"measurement": "Cardiotoxicity", "setting": "[6]; 1.5 mg kg-1 (highest dose)", "value": "highly cardiotoxic"}]}
{"smiles": "C#Cc1c[nH]c(=O)[nH]c1=O", "note": "[GW776, 5-ethynyluracil]", "values": [{"measurement": "Inhibition of rat liver ability to catalyse 5-FU degradation", "setting": "[1]; GW776 0.5 mg kg-1 1 h before 5-FU", "value": "> 96", "unit": "%"}, {"measurement": "Decrease in FBAL formation", "setting": "[1]; [9]", "value": "approximately 110 factor"}, {"measurement": "Decrease in fluoride ion formation", "setting": "[1]; [9]", "value": "approximately 10 factor"}, {"measurement": "Decrease of the amount of 5-FU catabolites in the presence of GW776", "setting": "[1]; [9]", "value": 27, "unit": "factor"}, {"measurement": "Increase of 5-FU anabolites", "setting": "[1]; [9]", "value": "approximately 7 factor"}, {"measurement": "Inhibition of DPD activity in liver extracts", "setting": "DPD", "value": "the same extent of inhibition"}, {"measurement": "Protection from 5-FU-induced neurotoxicity", "setting": "dogs", "value": "protected dogs from the neurotoxicity"}, {"measurement": "Therapeutic index of 5-FU", "setting": "mouse tumour models", "value": "increases the therapeutic index of 5-FU"}, {"measurement": "Therapeutic index of 5-FU", "setting": "rat tumour models", "value": "increases the therapeutic index of 5-FU"}, {"measurement": "Incorporation of 5-FU into RNA in tumours", "setting": "MOPC-315 s.c. tumours", "value": "enhanced the incorporation"}]}
